Data on 5 compounds can be found in patent US6124310A, “Enediyne compounds” (priority 1995, dated 2000).

The test system of assay [1] is UV4 cells. As to the kind of experiment: Growth inhibition of UV4 cells, 18 hours in 96-well plates under aerobic conditions, without or with purified E. coli nitroreductase and NADH. The class given is cell-based. Conditions: for pIC50: Cricetulus griseus, UV4, 18 h, 18 hours, aerobic. As to the method:
The compound prepared in Example 1 was activated by the aerobic nitroreductase from E. coli, by being incubated with UV4 cells for 18 hours in 96-well plates under aerobic conditions.

For assay [2], the system named is tumour cell cultures. Conditions: naturally-occurring enediyne antibiotics, literature; cited from earlier work.

pIC50: −log10 of the molar value.

Turning to `O=C(OCc1ccc([N+](=O)[O-])cc1)N1c2ccccc2C23OC24CCCC3C#C/C=C\C#CC14` (racemic) [compound 2, (6R,6aR,10R,10aS,14Z)-(±)-(4-nitrophenyl)methyl 7,8,9,10-tetrahydro-6a,10a-epoxy-6, [3]-hexene[1,5]diynophenanthridine-5(6H)-carboxylate], the negative-log IC50 (pIC50) is 4.74 in assay [1] (compound alone); 6.72 in assay [1] (together with purified E. coli nitroreductase enzyme (1 μg/mL) and NADH (1 mM, as cofactor)). Moreover, in assay [1] (ratio of IC50 without / with E. coli nitroreductase + NADH, 1080 min), the “fold activation by the enzyme” value is reported as 115 fold.
Consider `O=C(Oc1ccccc1)N1c2ccccc2C23OC24CCCC3C#C/C=C\C#CC14` (stereo not shown) [formula A'], for which the “showed any activation by the enzyme” value in assay [1] (E. coli nitroreductase, in words: 'neither ... showed any activation') is reported as “neither”.
As for calicheamicin, the “IC50 values for inhibition of growth of tumour cell cultures” value (shortened to “IC50 values for inhibition”) in assay [2] is listed as “low pM range”.
Take dynemicin: the “IC50 values for inhibition” value in assay [2] is given as “low pM range”.
Regarding esperamicin, the “IC50 values for inhibition” value in assay [2] is on record as “low pM range”.

Usually pIC50 stands for the IC50 on a negative log10 scale, so that one unit is a factor of ten.
